Consider two compounds from patent publication US20250041415A1, “CYTOTOXIC INNATE LYMPHOID CELL AND USES THEREOF” (Umoja Biopharma, Inc., priority 2021, published 2025).

Assay [1] deals with PSMA-positive human prostate cancer cells. The settings on record: DUPA-(99m)Tc; cited from earlier work.
The subject of assay [2] is iPSC-derived lymphoid progenitor and precursor cells. The assay can be described thus: RACR-driven differentiation and expansion of iCIL cells from Day 26 lymphoid progenitors. Type of assay: cell-based, human. The settings on record: AP21967 100 nM, no other cytokine. The source says: The RACR-system was utilized for differentiation to iPSC-derived CIL cells (iCIL cells). The iPSC cell line ATCC-BXS0117 (ATCC #ACS-1031) was differentiated into lymphoid progenitors through the STEMdiff NK cell kit ([…]® Technologies, #100-0170) as described in Example 2 above, up until the Day 26 timepoint. The percentage of cells containing common lymphoid progenitors (CD45+/CD5+/CD7+), CIL precursors (CD45+/CD5−/CD7+), and early CIL cells (CD45+/CD5−/CD7+/CD56+) is seen in FIG. 3D with ˜50% of the cells presenting as CIL precursors and ˜25% of total cells presenting as early CIL cells. […] Activation beads (#130-094-483) were added to cells at a 2:1 ratio and cells were placed in 37° C. incubator overnight to increase transduction of cells.
The cells were engineered with a polynucleotide encoding the RACR synthetic cytokine as described in Example 1, a Tag (anti-FITC) CAR (SEQ ID NO: 13), and an FRB domain for expression of FRB as a diffusible soluble protein in the engineered cell, in which the components were separated by a cleavable linker. The polynucleotide construct payload is designated Tag (anti-FITC) CAR-P2A-FRB-P2A-RACR. […] An aliquot of cells was collected weekly, counted on the Vicell Blu automated cell counter, and stained for CD16 clone 3G8, CD56 clone HCD56, CD45 clone 2D1. […]

Assay [3] deals with Vδ2+ T cells transduced with RACR-FRB-mCherry. The assay can be described thus: RACR-expansion of blood-derived Vδ2+ T cells. It counts as cell-based, human. As to conditions: 10 nM, days 14 and 21. The procedure:
On day 14, an aliquot of the cells was collected and washed, stained for V32, and RACR transduction was measured by mCherry. Percent Vδ2+ RACR+ cells, as well as number of transduced V32+ cells measured by counting beads was assessed by detection of V82 stain and mCherry via flow cytometry. Similarly, on day 21, an aliquot of cells was again measured for percent and number of Vδ2+ RACR+ cells via flow cytometry.

Assay [4] deals with common lymphoid progenitors (iPSC line WTC11). The assay can be described thus: RACR-signaling replacing common gamma chain cytokines in CLP to CIL differentiation. It counts as cell-based, human. As to conditions: 4 nM.

A word on the Kd: it is the free concentration of one partner at which half of the binding sites on the other are occupied at equilibrium, for simple one-to-one binding. Regarding `O=C(O)CC[C@H](NC(=O)N[C@@H](CCC(=O)O)C(=O)O)C(=O)O` [DUPA], in assay [1], the Kd is 14 nM.

As for `CO[C@@H]1C[C@H](C[C@@H](C)C2CC(=O)[C@H](C)/C=C(\C)[C@@H](O)[C@@H](OC)C(=O)[C@H](C)C[C@@H](C)/C=C/C=C/C=C(\C)[C@H](c3c[nH]c4c(C)cccc34)C[C@H]3CC[C@@H](C)[C@@](O)(O3)C(=O)C(=O)N3CCCC[C@H]3C(=O)O2)CC[C@@H]1O` (some centres unmarked) [AP21967], the “expansion (total number of TagCAR positive cells)” value in assay [2] was “sufficient to drive iCIL expansion”. Besides, in assay [3], the “percentage and total number of Vδ2+ RACR+ cells” value is “increased in both percentage and total number of cells”. Also, the “percent of RACR-CAR+ CD56+ cells” value in assay [4] (Day 40, all four media conditions) is “increase in the percent of RACR-CAR+ CD56+ cells”. In addition, the “fold change in RACR-CAR+ cells” value in assay [4] (media with UM729 alone (None)) is given as “largest fold change”.
